Results reported in patent US12168668B2, “Compounds for the treatment of cancer and inflammatory disease” (SHY Therapeutics LLC, priority 2015, dated 2024).

How the values were obtained:
TNFα = experiment: Mouse TNF alpha quantification assay (LPS-stimulated RAW 264.7, ELISA); format: cell-based; conditions: RAW264.7, RAW 264.7 macrophage cell line, LPS stimulation 16 h
Protocol: (§1) Protocol for Mouse TNF Alpha and IL6 Quantification Assay
(§2) Cell lines: Abelson murine leukemia virus transformed macrophage cell line RAW 264.7 was purchased from ATCC and grown in complete DMEM-High Glucose medium supplemented with penicillin (100 U/mL), streptomycin (100 μg/mL), and 10% heat-inactivated FBS at 37° C. in a humidified incubator with 5% CO2.
(§3) Method: Cells were plated at 40000 cells/well density in a 96-wells plate. After a 3-hour incubation, macrophages were starved with DMEM plus 0.5% FBS o/n. The next day the small molecules to be tested were added to the cells in the final concentration of 30 μM (with 0.3% DMSO) 3 hours prior to LPS stimulation (100 ng/ml). After LPS stimulation cells were incubated at 37° C. for 16 h. At the end of the incubation period, culture media were collected and production of LPS-induced TNFα and IL6 cytokine was measured using ELISA detection kits.
(§4) Sandwich ELISA: The ELISA Immunoassays Quantikine Mouse TNF-alpha (catalog number MTA00B) and IL6 (catalog number M6000B) were purchased from R&D Systems Inc., Minneapolis, MN These 4.5 hours solid phase ELISAs were used to measure mouse TNFα or IL6 levels in macrophages culture supernatants. Assays were executed according to the manufacturer specifications.

IL-6 = experiment: Mouse IL6 quantification assay (LPS-stimulated RAW 264.7, ELISA); format: cell-based; conditions: RAW264.7, RAW 264.7 macrophage cell line, LPS stimulation 16 h
Protocol: as §1, §2, §3, §4

For `Oc1nc(-c2ccccn2)nc2c(-c3ccccc3)csc12`, which inhibition at 30 µM (TNFα) is on record?
Its inhibition at 30 µM is 76 to 100%.

With `Oc1ccc(C2(c3ccccc3)CCCC2)cc1` as the molecule, how does the inhibition at 30 µM (IL-6) read?
Its inhibition at 30 µM is 76 to 100%.

What about the inhibition at 30 µM (TNFα) of the same molecule?
Its inhibition at 30 µM is 76 to 100%.

With `Oc1nc(-c2ccccn2)nc2c(-c3ccccc3Cl)csc12` as the molecule, how does the inhibition at 30 µM (TNFα) read?
The inhibition at 30 µM was 51 to 75%.
